Experimental findings from ChEMBL document CHEMBL1201862, “PubChem BioAssay data set” (2004) are described below.

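Compound exposure: 48 hours, 5 concentrations, 96-well plates. GI50 is the concentration that inhibits growth by half.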 Activity calls are given as the source filed them. Cut-off read from the data, not from the text of the source: active = GI50 up to about 1.1 µM and inactive = higher.

Some test systems named below: T47D; MOLT-4; NCI-H522; ACHN; NCI-H460; SF-295; MDA-N; SF-268; HOP-92; MDA-MB-231; SR; SK-OV-3; SN12C; COLO 205; HCT-15; SNB-19; OVCAR-5; K562; U-251; A498.
Common to all, as to assay: NCI-60 cell line screen, 48 h

For the compound `C/C(=N\NC(=O)/C(C#N)=C\c1ccc(N(CCC#N)CCC#N)cc1)c1ccccc1`, the GI50 in the assay on T47D, in the assay with MOLT-4, in the assay with NCI-H522, in the assay with ACHN, with NCI-H460 and in the assay on SF-295 was > 10 µM (inactive) in each case. Besides, the GI50 in the assay on MDA-N, with SF-268, in the assay with HOP-92, in the assay with MDA-MB-231, with SR and with SK-OV-3 was > 10 µM (inactive) each time. The GI50 was > 10 µM (inactive) in the assay on SN12C, > 10 µM (inactive) in the assay with COLO 205, > 10 µM in the assay with HCT-15 and 4.1 µM (inactive) in the assay with SNB-19.

Consider `Cc1c2ccnc(C(=O)NCCN(C)C)c2cc2c3cc(O)ccc3n(C)c12`, for which the GI50 was 0.321 µM (active) in the assay with T47D; < 0.01 µM (active) with MOLT-4; 0.76 µM (active) with OVCAR-5; 0.236 µM (active) in the assay on NCI-H522; 0.0188 µM (active) in the assay with ACHN; < 0.01 µM (active) with NCI-H460. For the same compound, the GI50 with SF-295 is 0.0671 µM (active); with MDA-N it was 0.286 µM (active); in the assay on K562, 0.123 µM (active); in the assay on SF-268, 0.0676 µM (active); in the assay with U-251, 0.0373 µM (active); in the assay with HOP-92 it was 0.235 µM (active). The GI50 was 0.314 µM (active) in the assay with MDA-MB-231; < 0.0184 µM (active) in the assay on SR; 0.162 µM (active) in the assay with SK-OV-3; 0.0596 µM (active) with SN12C; 0.268 µM (active) in the assay on COLO 205; 0.12 µM in the assay on HCT-15. Further, in the assay on SNB-19, the GI50 was 0.184 µM (active).

In the case of `O=C(O)c1ccc(NNc2cc(=O)[nH]c(=O)[nH]2)cc1`, the GI50 in the assay with T47D, in the assay on MOLT-4, in the assay on OVCAR-5, in the assay on ACHN, in the assay on NCI-H460 and in the assay with SF-295 was > 100 µM (inactive) in each case. Moreover, the GI50 in the assay with MDA-N, with K562, with SF-268, in the assay with A498, with U-251 and in the assay with MDA-MB-231 was > 100 µM (inactive) in each case. Further, the GI50 is > 100 µM (inactive) in the assay with SR; > 100 µM (inactive) in the assay on SK-OV-3; > 100 µM (inactive) in the assay with SN12C; > 100 µM (inactive) in the assay on COLO 205; > 100 µM in the assay on HCT-15; > 100 µM (inactive) with SNB-19.

Regarding `C=CCN1CCC2(CC1)NC(=O)c1ccccc1O2`, the GI50 with T47D, with MOLT-4, with OVCAR-5, in the assay with NCI-H522, with ACHN and with NCI-H460 was > 100 µM (inactive) in each case. The GI50 in the assay with SF-295, in the assay with MDA-N, in the assay with K562, with SF-268, in the assay with U-251 and with HOP-92 was > 100 µM (inactive) throughout. Further, the GI50 was > 100 µM (inactive) in the assay on MDA-MB-231; > 100 µM (inactive) with SR; > 100 µM (inactive) in the assay on SK-OV-3; > 100 µM (inactive) in the assay with SN12C; > 100 µM (inactive) in the assay with COLO 205; > 100 µM in the assay on HCT-15. For the same compound, in the assay on SNB-19, the GI50 is > 100 µM (inactive).

Take `Cn1c(-c2ccc(-c3cc(-c4cccs4)c(-c4cccs4)n3C)cc2)cc(-c2cccs2)c1-c1cccs1`: the GI50 in the assay with T47D, with MOLT-4, in the assay on ACHN, in the assay on NCI-H460, with SF-295 and in the assay on MDA-N was > 100 µM (inactive) throughout. The GI50 with K562, with SF-268, in the assay with U-251, in the assay with MDA-MB-231, in the assay on SR and with SK-OV-3 was > 100 µM (inactive) each time. Moreover, the GI50 is > 100 µM (inactive) with SN12C, > 100 µM (inactive) in the assay with COLO 205, > 100 µM in the assay with HCT-15 and > 100 µM (inactive) in the assay on SNB-19.

Regarding `CCOC(=O)CCC(NC(=O)c1ccc(Nc2cnc3cc(C(F)(F)F)ccc3n2)cc1)C(=O)OCC` (stereo not drawn), the GI50 in the assay with T47D is > 100 µM (inactive); in the assay on MOLT-4 it was > 100 µM (inactive); in the assay on OVCAR-5, > 100 µM (inactive); in the assay with NCI-H522 it was 30.3 µM (inactive); in the assay with ACHN, 63.2 µM (inactive); with NCI-H460, 12.6 µM (inactive). Also, the GI50 in the assay with SF-295 was 12.8 µM (inactive); with MDA-N it was > 100 µM (inactive); with K562 it was 93.1 µM (inactive); in the assay on SF-268, 14.1 µM (inactive); with U-251, 9.48 µM (inactive); with HOP-92, 23.9 µM (inactive). Besides, the GI50 in the assay with MDA-MB-231 is > 100 µM (inactive); in the assay on SR, > 100 µM (inactive); with SN12C, > 100 µM (inactive); with COLO 205, 80.4 µM (inactive); with HCT-15 it was > 100 µM; in the assay with SNB-19, 11.7 µM (inactive).

In the case of `CCOC(=O)c1c(O)nc(O)c(CC)c1C`, the GI50 with T47D, with MOLT-4, in the assay with OVCAR-5, in the assay with NCI-H522, in the assay with ACHN and in the assay on NCI-H460 was > 100 µM (inactive) each time. In addition, the GI50 in the assay on SF-295, with MDA-N, in the assay with K562, with SF-268, in the assay with A498 and in the assay on U-251 was > 100 µM (inactive) in each case. Besides, the GI50 with HOP-92 is > 100 µM (inactive); in the assay on MDA-MB-231, > 100 µM (inactive); in the assay with SK-OV-3, > 100 µM (inactive); in the assay with SN12C, > 100 µM (inactive); in the assay on COLO 205 it was > 100 µM (inactive); in the assay with HCT-15 it was > 100 µM. In the assay on SNB-19, the GI50 is > 100 µM (inactive).

Consider `CC(C)(C)C(=O)OCOP(=O)(OCOC(=O)C(C)(C)C)OCC1OC(n2ccc(=O)[nH]c2=O)C(N=[N+]=[N-])C1O` (stereo not drawn), for which the GI50 in the assay on T47D is 1.48 µM (inactive); in the assay on MOLT-4 it was 4.01 µM (inactive); in the assay on OVCAR-5 it was 5.28 µM (inactive); in the assay with NCI-H522 it was 4.92 µM (inactive); in the assay on ACHN, 4.2 µM (inactive); in the assay with NCI-H460 it was 3.08 µM (inactive). The GI50 in the assay with SF-295 is 12.7 µM (inactive); in the assay on MDA-N, 3.11 µM (inactive); in the assay with K562, 19.1 µM (inactive); in the assay on SF-268 it was 0.757 µM (active); in the assay on U-251, 2.59 µM (inactive); with HOP-92, 1.82 µM (inactive). In addition, the GI50 in the assay with MDA-MB-231 was 8.79 µM (inactive); with SR, 2.2 µM (inactive); with SN12C, 10.3 µM (inactive); in the assay on COLO 205, 3.14 µM (inactive); in the assay on HCT-15, 3.07 µM; in the assay with SNB-19, 12.9 µM (inactive).

On to `COC(=O)NC1(NC(=O)OC)NC(=O)c2ccccc2N1`, for which the GI50 in the assay on T47D, in the assay on MOLT-4, in the assay on OVCAR-5, in the assay on NCI-H522, in the assay on ACHN and in the assay with NCI-H460 was > 100 µM (inactive) throughout. The GI50 was 36.5 µM (inactive) in the assay on SF-295; 64.1 µM (inactive) in the assay on MDA-N; > 100 µM (inactive) in the assay on K562; > 100 µM (inactive) with SF-268; > 100 µM (inactive) in the assay with A498; > 100 µM (inactive) in the assay on MDA-MB-231. Besides, the GI50 is > 100 µM (inactive) with SR; > 100 µM (inactive) in the assay on SK-OV-3; > 100 µM (inactive) in the assay with SN12C; > 100 µM (inactive) in the assay with COLO 205; 63.5 µM with HCT-15; > 100 µM (inactive) with SNB-19.

As for `Cc1ncc([N+](=O)[O-])n1CCN(C)C(=O)CCCn1ccnc1[N+](=O)[O-]`, the GI50 in the assay on T47D, in the assay with MOLT-4, in the assay on OVCAR-5, in the assay on NCI-H522, with ACHN and in the assay with NCI-H460 was > 100 µM (inactive) each time. Besides, the GI50 in the assay on SF-295, in the assay with MDA-N, with K562, with SF-268, in the assay on A498 and in the assay with U-251 was > 100 µM (inactive) throughout. The GI50 was > 100 µM (inactive) in the assay on MDA-MB-231; > 100 µM (inactive) in the assay on SR; > 100 µM (inactive) with SK-OV-3; > 100 µM (inactive) in the assay with SN12C; > 100 µM (inactive) in the assay on COLO 205; > 100 µM in the assay on HCT-15.

On to `O=C1OC([C@H](O)c2cccnc2)c2ccccc21` (stereo partly drawn), for which the GI50 in the assay on T47D, in the assay on MOLT-4, in the assay with OVCAR-5, with NCI-H522, with ACHN and in the assay on NCI-H460 was > 10 µM (inactive) throughout. For the same compound, the GI50 in the assay on SF-295, with MDA-N, in the assay with K562, in the assay with SF-268, with U-251 and in the assay with HOP-92 was > 10 µM (inactive) in each case. For the same compound, the GI50 with MDA-MB-231 is > 10 µM (inactive); with SR, > 10 µM (inactive); with SK-OV-3 it was > 10 µM (inactive); in the assay with SN12C, > 10 µM (inactive); in the assay on COLO 205, > 10 µM (inactive); in the assay on HCT-15 it was > 10 µM. For the same compound, in the assay on SNB-19, the GI50 was > 10 µM (inactive).
